# Patent US20230183333A1, “COMPOSITION FOR THE TREATMENT OF PHILADELPHIA CHROMOSOME-POSITIVE ACUTE LYMPHOBLASTIC LEUKEMIA” (priority 2020, published 2023)
# T1: mouse Jak3 in pre-B cells (mouse, UniProt Q62137 1-1100)
# T1 construct: Detected in cells by PLA with an antibody from Cell Signaling
# T1 sequence (looked up): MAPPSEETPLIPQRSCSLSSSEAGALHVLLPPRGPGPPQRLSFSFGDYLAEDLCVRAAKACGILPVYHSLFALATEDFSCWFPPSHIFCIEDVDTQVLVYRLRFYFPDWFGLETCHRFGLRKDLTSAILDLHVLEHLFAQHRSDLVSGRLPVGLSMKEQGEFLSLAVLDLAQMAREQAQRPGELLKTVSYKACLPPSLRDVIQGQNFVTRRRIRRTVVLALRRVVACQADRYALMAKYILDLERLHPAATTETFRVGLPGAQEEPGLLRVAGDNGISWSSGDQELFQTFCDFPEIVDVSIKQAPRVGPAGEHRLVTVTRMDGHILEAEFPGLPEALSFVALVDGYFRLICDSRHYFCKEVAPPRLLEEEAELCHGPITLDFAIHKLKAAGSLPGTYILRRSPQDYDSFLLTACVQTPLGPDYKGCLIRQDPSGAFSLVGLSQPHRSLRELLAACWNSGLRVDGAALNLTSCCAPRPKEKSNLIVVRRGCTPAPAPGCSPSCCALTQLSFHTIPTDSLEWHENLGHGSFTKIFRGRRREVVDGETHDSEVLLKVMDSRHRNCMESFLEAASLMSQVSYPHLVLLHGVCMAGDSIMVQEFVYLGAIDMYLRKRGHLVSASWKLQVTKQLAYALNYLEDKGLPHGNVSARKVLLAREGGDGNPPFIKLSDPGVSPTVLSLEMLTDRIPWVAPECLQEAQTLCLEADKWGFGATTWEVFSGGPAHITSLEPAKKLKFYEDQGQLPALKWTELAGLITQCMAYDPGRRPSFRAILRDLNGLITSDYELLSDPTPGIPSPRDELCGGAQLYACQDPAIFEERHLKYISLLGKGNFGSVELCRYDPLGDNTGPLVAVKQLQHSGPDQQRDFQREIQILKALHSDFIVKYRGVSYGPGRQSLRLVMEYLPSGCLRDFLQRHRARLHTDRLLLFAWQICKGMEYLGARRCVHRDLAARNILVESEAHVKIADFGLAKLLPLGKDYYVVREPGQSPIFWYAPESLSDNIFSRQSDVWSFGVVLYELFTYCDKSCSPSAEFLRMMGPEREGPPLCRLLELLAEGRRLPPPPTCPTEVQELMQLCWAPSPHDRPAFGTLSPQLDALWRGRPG
# T2: human interleukin 7 receptor (IL7R) on SUP-B15 Ph+ BCP-ALL cells (human, UniProt P16871 21-459)
# T2 construct: whole, on cells; In the immunoprecipitation it comes from SUP-B15 lysate; also called IL7Rα; human IL7Rα
# T2 sequence (looked up): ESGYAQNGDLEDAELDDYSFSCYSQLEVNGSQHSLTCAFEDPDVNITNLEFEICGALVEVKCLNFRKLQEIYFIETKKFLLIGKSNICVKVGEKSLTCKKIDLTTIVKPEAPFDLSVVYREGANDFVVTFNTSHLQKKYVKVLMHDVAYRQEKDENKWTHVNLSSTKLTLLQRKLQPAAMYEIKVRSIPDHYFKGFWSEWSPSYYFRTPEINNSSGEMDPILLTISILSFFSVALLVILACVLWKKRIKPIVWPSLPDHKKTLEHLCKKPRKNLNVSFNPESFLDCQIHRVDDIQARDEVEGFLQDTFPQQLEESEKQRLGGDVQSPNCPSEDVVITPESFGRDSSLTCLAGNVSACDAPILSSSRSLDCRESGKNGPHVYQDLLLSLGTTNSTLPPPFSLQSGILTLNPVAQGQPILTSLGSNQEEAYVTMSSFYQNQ
# B1: mouse CXCR4 on bone marrow-derived pre-B cells (WT or BCR-ABL1 transformed) (receptor, UniProt P70658 1-359, looked up)
# chain: MEPISVSIYTSDNYSEEVGSGDYDSNKEPCFRDENVHFNRIFLPTIYFIIFLTGIVGNGLVILVMGYQKKLRSMTDKYRLHLSVADLLFVITLPFWAVDAMADWYFGKFLCKAVHIIYTVNLYSSVLILAFISLDRYLAIVHATNSQRPRKLLAEKAVYVGVWIPALLLTIPDFIFADVSQGDISQGDDRYICDRLYPDSLWMVVFQFQHIMVGLILPGIVILSCYCIIISKLSHSKGHQKRKALKTTVILILAFFACWLPYYVGISIDSFILLGVIKQGCDFESIVHKWISITEALAFFHCCLNPILYAFLGAKFKSSAQHALNSMSRGSSLKILSKGKRGGHSSVSTESESSSFHSS
# notes: whole, on cells
# B2: human CXCR4 on SUP-B15 cells (receptor, UniProt P61073 1-352, looked up)
# chain: MEGISIYTSDNYTEEMGSGDYDSMKEPCFREENANFNKIFLPTIYSIIFLTGIVGNGLVILVMGYQKKLRSMTDKYRLHLSVADLLFVITLPFWAVDAVANWYFGNFLCKAVHVIYTVNLYSSVLILAFISLDRYLAIVHATNSQRPRKLLAEKVVYVGVWIPALLLTIPDFIFANVSEADDRYICDRFYPNDLWVVVFQFQHIMVGLILPGIVILSCYCIIISKLSHSKGHQKRKALKTTVILILAFFACWLPYYIGISIDSFILLEIIKQGCEFENTVHKWISITEALAFFHCCLNPILYAFLGAKFKTSAQHALTSVSRGSSLKILSKGKRGGHSSVSTESESSSFHSS
# notes: whole, on cells; In the immunoprecipitation it comes from SUP-B15 lysate; also called C-X-C chemokine receptor 4
# B3: IL7: cytokine that binds IL7Rα chain (protein)
# chain: DCDIEGKDGKQYESVLMVSIDQLLDSMKEIGSNCLNNEFNFFKRHICDANKEGMFLFRAARKLRQFLKMNSTGDFDLHLLKVSEGTTILLNCTGQVKGRKPAALGEAQPTKSLEENKSLKEQKKLNDLCFLKRLLQEIKTCWNKILMGTKEH
# B4: mouse IL7R on bone marrow-derived pre-B cells (WT or BCR-ABL1 transformed) (receptor, UniProt P16872 21-459, looked up)
# chain: ESGNAQDGDLEDADADDHSFWCHSQLEVDGSQHLLTCAFNDSDINTANLEFQICGALLRVKCLTLNKLQDIYFIKTSEFLLIGSSNICVKLGQKNLTCKNMAINTIVKAEAPSDLKVVYRKEANDFLVTFNAPHLKKKYLKKVKHDVAYRPARGESNWTHVSLFHTRTTIPQRKLRPKAMYEIKVRSIPHNDYFKGFWSEWSPSSTFETPEPKNQGGWDPVLPSVTILSLFSVFLLVILAHVLWKKRIKPVVWPSLPDHKKTLEQLCKKPKTSLNVSFNPESFLDCQIHEVKGVEARDEVESFLPNDLPAQPEELETQGHRAAVHSANRSPETSVSPPETVRRESPLRCLARNLSTCNAPPLLSSRSPDYRDGDRNRPPVYQDLLPNSGNTNVPVPVPQPLPFQSGILIPVSQRQPISTSSVLNQEEAYVTMSSFYQNK
# notes: whole, on cells; also called IL7Rα
# Key:
# [1] = tested on: human Ph+ ALL SUP-B15 cell line; experiment: IL7R and CXCR4 surface expression after imatinib in a human Ph+ ALL cell line; format: cell-based; conditions: 5 μM imatinib, day 7, surface expression
# Method: 68 BCR-ABL+ ALL patients were treated according to European intergroup study of post-induction treatment of Philadelphia-chromosome-positive ALL (EsPhALL) 2004 and 2010 protocols (NCT00287105) and ALL-Berlin-Frankfurt-Münster (BFM) 2000 (NCT00430118) study. Informed consent was obtained according to institutional regulations, in accordance with the Declaration of Helsinki. 697, SUP-B15, and TOM-1 cell lines were obtained from DSMZ. Ph+ ALL cells containing T3151 mutation was kindly provided by M. Miischen (Shojaee, S., et al. Nat Med 22, 379-387 (2016)).
# [2] = tested on: BCR-ABL1 transformed cells; experiment: Imatinib-induced cell death in the presence of cytokine/chemokine (viability, cell cycle); format: cell-based, mouse; conditions: added together with 1 μM imatinib
# Method: BM cells from WT (n=7, female), IL7Rα^Δ (n=7, female), IL7Rα^fl/fl (n=7, female), CXCR4^fl/fl (n=3, female) and FoxO1^fl/fl (n=3, female) mice were collected and retrovirally transformed with either an empty pMIG vector or with a pMIG vector expressing BCR-ABL1. Unless mentioned otherwise, cells were cultured for 3 to 7 days in Iscove's medium (Biochrom AG) containing 10% heat-inactivated FCS (Sigma-Aldrich), 2 mM 1-glutamine, 100 U/ml penicillin (Gibco), 100 U/ml streptomycin (Gibco), and 50 μM 2-mercaptoethanol. The medium was supplemented in excess with the supernatant of J558L plasmacytoma cells stably transfected with a vector encoding murine IL7. Transformed cells were selected by IL7 withdrawal and kept in optimum conditions^38. Retroviral vectors containing either constitutively active STAT5 (STAT5-CA)^34 or an empty vector were used to transduce BCR-ABL1-transformed cells and sorted cells were used then for western blot or flow cytometry analysis. 1-2μM 4-hydroxy tamoxifen (Tam) (Sigma-Aldrich) was used to induce deletion on plasmids expressing tamoxifen-inducible form of Cre (Cre-ER^T2)^14. All cells were tested and found free from mycoplasma.
# Antibodies for flow cytometry (CD19, IL7R, CXCR4, FoxO1 and CD11b) were purchased from (eBiosciences, BioLegend, Invitrogen or Cell Signaling). Intracellular flow cytometry staining was performed using Fix and Perm cell permeabilization kit (ADG). Cell viability was measured using Sytox® blue dead cell stain (Life Technologies). FACS Cantoll (BD Biosciences) was used for flow cytometry, and FlowJo v.10.1 was used for data analysis.
# [3] = tested on: BCR-ABL1 transformed cells; experiment: CXCL12-induced Ca2+ flux; format: cell-based, mouse; conditions: CXCL12 100 ng/ml
# Method: A total of 1×10^6 cells were loaded with Indo-1 AM (Invitrogen) and used for Ca^2+ analyses^62. 100 ng/m1 of CXCL12 was used for stimulation
# [4] = target: B4; experiment: proximity ligation assay on mouse pre-B cells
# [5] = target: T1, mouse Jak3 in pre-B cells; experiment: proximity ligation assay on mouse BCR-ABL1 transformed pre-B cells
# [6] = target: T2, human interleukin 7 receptor (IL7R) on …; experiment: Fab-PLA on SUP-B15 cells in comparison to Ramos cells
# [7] = target: T1, mouse Jak3 in pre-B cells; experiment: proximity ligation assay on mouse WT and BCR-ABL1 transformed pre-B cells
molecule,measurement,setting,value
Cc1ccc(NC(=O)c2ccc(CN3CCN(C)CC3)cc2)cc1Nc1nccc(-c2cccnc2)n1 [imatinib],expression of IL7R and CXCR4,[1],upregulated IL7R and CXCR4
"CXCL12: chemokine, the ligand for CXCR4",effect on imatinib-induced cell death,[2],did not affect imatinib treatment
c1cc(CN2CCCNCCNCCCNCC2)ccc1CN1CCCNCCNCCCNCC1 [AMD3100],effect on imatinib-induced cell death,[2],did not affect imatinib treatment
same,CXCL12-induced Ca2+ response,[3],prevented the Ca^2+ response
TSLP: the ligand for CRLF2,effect on imatinib-induced cell death,[2],unable to rescue BCR-ABL1 transformed cells from inhibitor-induced cell death
B1,binding result,[4],binds
same,binding result,[5],binds
B2,binding result,[6],binds
B3,effect on imatinib-induced cell death,[2],counteracted imatinib-induced cell death and restored the cell cycle progression
B4,binding result,[7],binds
